{"source": "paper PMC5218480", "about": "(PLoS ONE, 2017)", "tested_on": "MV-4-11 cells", "assay": "Gene expression microarray analysis (Affymetrix PrimeView) and GSEA", "type": "cell-based, human", "parameters": "RFU PODN (11730768_x_at) / Fold change /veh PODN (11730768_x_at) / RFU LINC00158 (11744669_a_at) / Fold change /veh LINC00158 (11744669_a_at) / RFU DUSP10 (11751237_a_at) / Fold change /veh DUSP10 (11751237_a_at) / RFU ID3 (11757404_x_at) / Fold change /veh ID3 (11757404_x_at) / RFU PLEKHG5 (11737974_s_at) / Fold change /veh PLEKHG5 (11737974_s_at) / RFU LRRC4B (11730491_at) / Fold change /veh LRRC4B (11730491_at) / RFU GIMAP4 (11747438_a_at) / Fold change /veh GIMAP4 (11747438_a_at) / RFU KRT8 (11758183_x_at) / Fold change /veh KRT8 (11758183_x_at) / RFU CNN1 (11734310_a_at) / Fold change /veh CNN1 (11734310_a_at) / RFU VPS37D (11726825_at) / Fold change /veh VPS37D (11726825_at) / RFU C10orf10 (11716522_x_at) / Fold change /veh C10orf10 (11716522_x_at) / RFU KIR2DL2 /// KIR2DL4 /// KIR2DL5A /// KIR2DL5B /// KIR2DS1 /// KIR2DS2 /// KIR2DS3 /// KIR2DS4 /// KIR3DL3 /// KIR3DL3 /// KIR3DS1 (11738374_at) / Fold change /veh KIR2DL2 /// KIR2DL4 /// KIR2DL5A /// KIR2DL5B /// KIR2DS1 /// KIR2DS2 /// KIR2DS3 /// KIR2DS4 /// KIR3DL3 /// KIR3DL3 /// KIR3DS1 (11738374_at) / RFU C1QL1 (11718748_at) / Fold change /veh C1QL1 (11718748_at) / RFU TMPRSS4 (11747572_a_at) / Fold change /veh TMPRSS4 (11747572_a_at) / RFU HAMP (11756126_x_at) / Fold change /veh HAMP (11756126_x_at) / RFU RNFT2 (11725882_a_at) / Fold change /veh RNFT2 (11725882_a_at) / RFU NR4A2 (11747474_a_at) / Fold change /veh NR4A2 (11747474_a_at) / RFU ABCC12 (11746883_a_at) / Fold change /veh ABCC12 (11746883_a_at) / RFU TMEM136 (11760407_x_at) / Fold change /veh TMEM136 (11760407_x_at) / RFU CLDN22 /// WWC2 (11732394_at) / Fold change /veh CLDN22 /// WWC2 (11732394_at) / RFU HLA-DPB1 (11760878_x_at) / Fold change /veh HLA-DPB1 (11760878_x_at) / RFU SPINT1 (11716480_a_at) / Fold change /veh SPINT1 (11716480_a_at) / RFU GAP43 (11754022_s_at) / Fold change /veh GAP43 (11754022_s_at) / RFU A4GNT (11735810_at) / Fold change /veh A4GNT (11735810_at) / RFU PRB3 (11715151_x_at) / Fold change /veh PRB3 (11715151_x_at) / RFU TUBB4B (11761932_at) / Fold change /veh TUBB4B (11761932_at) / RFU CAPN14 (11732068_a_at) / Fold change /veh CAPN14 (11732068_a_at) / RFU TMCC2 (11721928_a_at) / Fold change /veh TMCC2 (11721928_a_at) / RFU IRGQ (11745062_a_at) / Fold change /veh IRGQ (11745062_a_at) / RFU FAM174B (11720279_a_at) / Fold change /veh FAM174B (11720279_a_at) / RFU TMPRSS4 (11748680_a_at) / Fold change /veh TMPRSS4 (11748680_a_at) / RFU FAM212B (11763350_a_at) / Fold change /veh FAM212B (11763350_a_at) / RFU PLEKHG5 (11743358_a_at) / Fold change /veh PLEKHG5 (11743358_a_at) / RFU ZSCAN30 (11745921_a_at) / Fold change /veh ZSCAN30 (11745921_a_at) / RFU CMKLR1 (11741424_a_at) / Fold change /veh CMKLR1 (11741424_a_at) / RFU LOC101060620 /// MAPK8IP1 (11723275_at) / Fold change /veh LOC101060620 /// MAPK8IP1 (11723275_at) / RFU SPTSSB (11747773_x_at) / Fold change /veh SPTSSB (11747773_x_at) / RFU PRSS12 (11739890_at) / Fold change /veh PRSS12 (11739890_at) / RFU BIN1 (11741810_x_at) / Fold change /veh BIN1 (11741810_x_at) / RFU WNT11 (11732464_a_at) / Fold change /veh WNT11 (11732464_a_at) / RFU C10orf10 (11716521_a_at) / Fold change /veh C10orf10 (11716521_a_at) / RFU C5orf56 (11738089_at) / Fold change /veh C5orf56 (11738089_at) / RFU CYB561 (11721691_x_at) / Fold change /veh CYB561 (11721691_x_at) / RFU ANKRD19P (11752326_a_at) / Fold change /veh ANKRD19P (11752326_a_at) / RFU OR2T12 /// OR2T33 /// OR2T8 (11738714_s_at) / Fold change /veh OR2T12 /// OR2T33 /// OR2T8 (11738714_s_at) / RFU VCAN (11748164_a_at) / Fold change /veh VCAN (11748164_a_at) / RFU JSRP1 (11732532_at) / Fold change /veh JSRP1 (11732532_at) / RFU KRTAP10-11 (11738290_x_at) / Fold change /veh KRTAP10-11 (11738290_x_at) / RFU MYO3A (11730013_a_at) / Fold change /veh MYO3A (11730013_a_at) / RFU EBF3 (11725865_a_at) / Fold change /veh EBF3 (11725865_a_at) / RFU CAMK2N1 (11719241_x_at) / Fold change /veh CAMK2N1 (11719241_x_at) / RFU C5orf56 (11738088_a_at) / Fold change /veh C5orf56 (11738088_a_at) / RFU OLFML3 (11715873_a_at) / Fold change /veh OLFML3 (11715873_a_at) / RFU LOC100653217 /// NTM (11731650_a_at) / Fold change /veh LOC100653217 /// NTM (11731650_a_at) / RFU MAPK11 (11762145_a_at) / Fold change /veh MAPK11 (11762145_a_at) / RFU FIZ1 (11724087_x_at) / Fold change /veh FIZ1 (11724087_x_at) / RFU OASL (11726364_x_at) / Fold change /veh OASL (11726364_x_at) / RFU SOX15 (11748057_x_at) / Fold change /veh SOX15 (11748057_x_at) / RFU CD79A (11719716_a_at) / Fold change /veh CD79A (11719716_a_at) / RFU HIST1H1D (11736915_at) / Fold change /veh HIST1H1D (11736915_at) / RFU CASKIN2 (11723855_a_at) / Fold change /veh CASKIN2 (11723855_a_at) / RFU LOC730098 (11760151_x_at) / Fold change /veh LOC730098 (11760151_x_at) / RFU OR4N2 (11742367_at) / Fold change /veh OR4N2 (11742367_at) / RFU PRRT2 (11749266_a_at) / Fold change /veh PRRT2 (11749266_a_at) / RFU SNX32 (11753110_a_at) / Fold change /veh SNX32 (11753110_a_at) / RFU CDHR5 (11726645_a_at) / Fold change /veh CDHR5 (11726645_a_at) / RFU RCAN1 (11760418_a_at) / Fold change /veh RCAN1 (11760418_a_at) / RFU FAM167A (11723789_a_at) / Fold change /veh FAM167A (11723789_a_at) / RFU FAM26E (11764081_at) / Fold change /veh FAM26E (11764081_at) / RFU ISYNA1 (11749810_s_at) / Fold change /veh ISYNA1 (11749810_s_at) / RFU ACY1 (11761880_at) / Fold change /veh ACY1 (11761880_at) / RFU 11764098_at / Fold change /veh 11764098_at / RFU SAMD14 (11745864_x_at) / Fold change /veh SAMD14 (11745864_x_at) / RFU NPB (11741838_a_at) / Fold change /veh NPB (11741838_a_at) / RFU TMPRSS6 (11731388_a_at) / Fold change /veh TMPRSS6 (11731388_a_at) / RFU KRTAP10-2 (11738614_at) / Fold change /veh KRTAP10-2 (11738614_at) / RFU ARHGAP8 /// PRR5-ARHGAP8 (11727945_x_at) / Fold change /veh ARHGAP8 /// PRR5-ARHGAP8 (11727945_x_at) / RFU KRTAP5-7 /// NADSYN1 (11734609_at) / Fold change /veh KRTAP5-7 /// NADSYN1 (11734609_at) / RFU RASL12 (11751679_a_at) / Fold change /veh RASL12 (11751679_a_at) / RFU CDKN2B (11736163_a_at) / Fold change /veh CDKN2B (11736163_a_at) / RFU PRF1 (11729649_at) / Fold change /veh PRF1 (11729649_at) / RFU, ZNF638 /// ZNF638-IT1 / Fold change vs veh, ZNF638 /// ZNF638-IT1 / RFU, PANK3 / Fold change vs veh, PANK3 / RFU, SH3YL1 / Fold change vs veh, SH3YL1 / RFU, ZEB2 / Fold change vs veh, ZEB2 / RFU, NRIP1 / Fold change vs veh, NRIP1 / RFU, PTTG1IP / Fold change vs veh, PTTG1IP / RFU, CAPN2 / Fold change vs veh, CAPN2 / RFU, MED14 / Fold change vs veh, MED14 / RFU, SNORA58 / Fold change vs veh, SNORA58 / RFU, C1orf63 / Fold change vs veh, C1orf63 / RFU, LRRFIP1 / Fold change vs veh, LRRFIP1 / RFU, NDUFAF7 / Fold change vs veh, NDUFAF7 / RFU, SLC12A2 / Fold change vs veh, SLC12A2 / RFU, IBTK / Fold change vs veh, IBTK / RFU, ESF1 / Fold change vs veh, ESF1 / Fold change vs veh, TMEM50B / RFU, TAOK1 / Fold change vs veh, TAOK1 / RFU, ACBD3 / Fold change vs veh, ACBD3 / RFU, TMA16 / Fold change vs veh, TMA16 / RFU, RWDD3 / Fold change vs veh, RWDD3 / RFU, BCAT1 / Fold change vs veh, BCAT1 / RFU, EDEM3 / Fold change vs veh, EDEM3 / RFU, TMEM33 / Fold change vs veh, TMEM33 / RFU, WDR75 / Fold change vs veh, WDR75 / RFU, AHCTF1 / Fold change vs veh, AHCTF1 / RFU, TFRC / Fold change vs veh, TFRC / RFU, ZDHHC17 / Fold change vs veh, ZDHHC17 / RFU, NOM1 / Fold change vs veh, NOM1 / RFU, ARL8B / Fold change vs veh, ARL8B / RFU, ZBTB11 / Fold change vs veh, ZBTB11 / RFU, TAMM41 / Fold change vs veh, TAMM41 / RFU, KIAA1704 /// LOC100996395 / Fold change vs veh, KIAA1704 /// LOC100996395 / RFU, ING1 / Fold change vs veh, ING1 / RFU, TRMT61B / Fold change vs veh, TRMT61B / RFU, FUBP3 / Fold change vs veh, FUBP3 / RFU, TP53 / Fold change vs veh, TP53 / RFU, TNKS2 / Fold change vs veh, TNKS2 / RFU, ZFP14 / Fold change vs veh, ZFP14 / RFU, ACTR2 / Fold change vs veh, ACTR2 / RFU, PPP3R1 / Fold change vs veh, PPP3R1 / RFU, PIK3R1 / Fold change vs veh, PIK3R1 / RFU, HNRNPA1 / Fold change vs veh, HNRNPA1 / RFU, RNF170 / Fold change vs veh, RNF170 / RFU, ZNF28 / Fold change vs veh, ZNF28 / RFU, RNGTT / Fold change vs veh, RNGTT / RFU, OGT / Fold change vs veh, OGT / RFU, BRD1 / Fold change vs veh, BRD1 / RFU, MARS / Fold change vs veh, MARS / RFU, ZNF655 / Fold change vs veh, ZNF655 / RFU, FAHD1 / Fold change vs veh, FAHD1 / RFU, BDP1 / Fold change vs veh, BDP1 / RFU, LRRCC1 / Fold change vs veh, LRRCC1 / RFU, ARID1A / Fold change vs veh, ARID1A / RFU, ZNF146 / Fold change vs veh, ZNF146 / RFU, ZNF330 / Fold change vs veh, ZNF330 / RFU, GPN3 / Fold change vs veh, GPN3 / RFU, C9orf123 / Fold change vs veh, C9orf123 / RFU, N4BP2L2 / Fold change vs veh, N4BP2L2 / RFU, ARFIP1 / Fold change vs veh, ARFIP1 / RFU, FAM179B / Fold change vs veh, FAM179B / RFU, BCL10 / Fold change vs veh, BCL10 / RFU, UHRF1BP1L / Fold change vs veh, UHRF1BP1L / RFU, BET1 / Fold change vs veh, BET1 / RFU, CNOT2 / Fold change vs veh, CNOT2 / RFU, ZNF268 / Fold change vs veh, ZNF268 / Fold change vs veh, ZNF507 / RFU, DGCR2 / Fold change vs veh, DGCR2 / RFU, WDSUB1 / Fold change vs veh, WDSUB1 / Fold change vs veh, HSP90B1 /// MIR3652 / RFU, ADSS / Fold change vs veh, ADSS / RFU, GK / Fold change vs veh, GK / RFU, ZNF148 / Fold change vs veh, ZNF148 / RFU, TAF9 / Fold change vs veh, TAF9 / RFU, SLC1A5 / Fold change vs veh, SLC1A5 / RFU, SLMO2 / Fold change vs veh, SLMO2 / RFU, ABCC4 / Fold change vs veh, ABCC4 / RFU, LOC101060439 /// RAP1B / Fold change vs veh, LOC101060439 /// RAP1B / RFU, RFX7 / Fold change vs veh, RFX7 / RFU, GTPBP10 / Fold change vs veh, GTPBP10 / RFU, CNEP1R1 / Fold change vs veh, CNEP1R1 / RFU, BIVM-ERCC5 /// ERCC5 / Fold change vs veh, BIVM-ERCC5 /// ERCC5 / RFU, ILF3 / Fold change vs veh, ILF3 / RFU 11762660_at / Fold change /veh 11762660_at / RFU VCAN (11757783_s_at) / Fold change /veh VCAN (11757783_s_at) / RFU DDX43 (11728927_at) / Fold change /veh DDX43 (11728927_at) / RFU KRT8 (11758188_x_at) / Fold change /veh KRT8 (11758188_x_at) / RFU NKD1 (11759106_at) / Fold change /veh NKD1 (11759106_at) / RFU SRD5A1 (11742802_a_at) / Fold change /veh SRD5A1 (11742802_a_at) / RFU TPSAB1 /// TPSB2 (11721975_s_at) / Fold change /veh TPSAB1 /// TPSB2 (11721975_s_at) / RFU GSTM3 (11746129_a_at) / Fold change /veh GSTM3 (11746129_a_at) / RFU IL23R (11737362_x_at) / Fold change /veh IL23R (11737362_x_at) / RFU TMEM51 (11727254_a_at) / Fold change /veh TMEM51 (11727254_a_at) / RFU PIWIL2 (11732686_x_at) / Fold change /veh PIWIL2 (11732686_x_at) / RFU ORM1 (11744905_x_at) / Fold change /veh ORM1 (11744905_x_at) / RFU CCDC152 (11743942_at) / Fold change /veh CCDC152 (11743942_at) / RFU ECM1 (11717891_a_at) / Fold change /veh ECM1 (11717891_a_at) / RFU IL23R (11748794_a_at) / Fold change /veh IL23R (11748794_a_at) / RFU TNFAIP8L3 (11732012_x_at) / Fold change /veh TNFAIP8L3 (11732012_x_at) / RFU MBOAT4 (11741988_at) / Fold change /veh MBOAT4 (11741988_at) / RFU 11764193_at / Fold change /veh 11764193_at / RFU TMEM53 (11763286_at) / Fold change /veh TMEM53 (11763286_at) / RFU MAGEB2 (11727129_at) / Fold change /veh MAGEB2 (11727129_at) / RFU TMEM200A (11744735_a_at) / Fold change /veh TMEM200A (11744735_a_at) / RFU CCDC152 (11751479_a_at) / Fold change /veh CCDC152 (11751479_a_at) / RFU FAM211A (11726209_a_at) / Fold change /veh FAM211A (11726209_a_at) / RFU RGS16 (11746705_a_at) / Fold change /veh RGS16 (11746705_a_at) / RFU VCAN (11755009_s_at) / Fold change /veh VCAN (11755009_s_at) / RFU RHOB (11743442_s_at) / Fold change /veh RHOB (11743442_s_at) / RFU RGS16 (11720943_a_at) / Fold change /veh RGS16 (11720943_a_at) / RFU RGS16 (11720944_at) / Fold change /veh RGS16 (11720944_at) / RFU, VPS4B / Fold change vs veh, VPS4B / RFU, CREB1 / Fold change vs veh, CREB1 / RFU, DNAJC13 / Fold change vs veh, DNAJC13 / RFU, GNAQ / Fold change vs veh, GNAQ / RFU, CDK5R1 / Fold change vs veh, CDK5R1 / RFU, ZRANB3 / Fold change vs veh, ZRANB3 / RFU, CUL4A / Fold change vs veh, CUL4A / RFU, CCNY / Fold change vs veh, CCNY / RFU, UFL1 / Fold change vs veh, UFL1 / RFU, COG3 / Fold change vs veh, COG3 / RFU, DIAPH2 / Fold change vs veh, DIAPH2 / RFU, SKA2 / Fold change vs veh, SKA2 / RFU, AFF3 / Fold change vs veh, AFF3 / RFU, LMF1 / Fold change vs veh, LMF1 / RFU, IPO11 / Fold change vs veh, IPO11 / RFU, DFFB / Fold change vs veh, DFFB / RFU, FOXP1 / Fold change vs veh, FOXP1 / RFU, CARD8 / Fold change vs veh, CARD8 / RFU, STRN3 / Fold change vs veh, STRN3 / RFU, ADK / Fold change vs veh, ADK / RFU, RASSF2 / Fold change vs veh, RASSF2 / RFU, WIPF1 / Fold change vs veh, WIPF1 / RFU, LARP1B / Fold change vs veh, LARP1B / RFU, RASA1 / Fold change vs veh, RASA1 / RFU, RB1 / Fold change vs veh, RB1 / RFU, PPFIA1 / Fold change vs veh, PPFIA1 / RFU, MAT2A / Fold change vs veh, MAT2A / RFU, CCT5 / Fold change vs veh, CCT5 / RFU, WDR92 / Fold change vs veh, WDR92 / RFU, CUX1 / Fold change vs veh, CUX1 / RFU, TTC7A / Fold change vs veh, TTC7A / RFU, TMEM135 / Fold change vs veh, TMEM135 / RFU, DEPTOR / Fold change vs veh, DEPTOR / RFU, CPM / Fold change vs veh, CPM / RFU, DNAJB6 / Fold change vs veh, DNAJB6 / RFU, CACNA2D3 / Fold change vs veh, CACNA2D3 / RFU, DTX4 / Fold change vs veh, DTX4 / RFU, TFCP2 / Fold change vs veh, TFCP2 / RFU, GMCL1 /// GMCL1P1 / Fold change vs veh, GMCL1 /// GMCL1P1 / RFU, AEBP2 / Fold change vs veh, AEBP2 / RFU, SNHG1 /// SNORD22 /// SNORD25 /// SNORD26 /// SNORD27 /// SNORD28 /// SNORD29 /// SNORD31 / Fold change vs veh, SNHG1 /// SNORD22 /// SNORD25 /// SNORD26 /// SNORD27 /// SNORD28 /// SNORD29 /// SNORD31 / Fold change (Aza/veh), C12orf56 (ProbeSet 11735607_a_at) / Fold change (ACY-1035/veh), C12orf56 (ProbeSet 11735607_a_at) / Fold change (Aza/veh), FGFR1OP (ProbeSet 11751329_s_at) / Fold change (ACY-1035/veh), FGFR1OP (ProbeSet 11751329_s_at) / Fold change (Aza/veh), VPS36 (ProbeSet 11739960_a_at) / Fold change (ACY-1035/veh), VPS36 (ProbeSet 11739960_a_at) / RFU SYPL1 (11715823_x_at) / Fold change /veh SYPL1 (11715823_x_at) / RFU IGFBP7 (11715501_s_at) / Fold change /veh IGFBP7 (11715501_s_at) / RFU REEP3 (11722064_at) / Fold change /veh REEP3 (11722064_at) / RFU IGLL1 (11728026_x_at) / Fold change /veh IGLL1 (11728026_x_at): dose or concentration left out as unconfirmed", "settings": "MV-4-11 cells, 48 hours", "data": [{"smiles": "Nc1ncn([C@@H]2O[C@H](CO)[C@@H](O)[C@H]2O)c(=O)n1", "note": "[azacitidine]", "values": [{"measurement": "Fold change /veh KRT8 (11758188_x_at)", "result": 1.26}]}]}
